Data taken from patent US7446095B2, “Peptides modulating caspase activation” (priority 2002, dated 2008).
“Also recorded” adds a separate entry of the source. Bridges are numbered along the chain shown (N, C = ends). Where no end group is shown, it is not given here.

Experiments:
U-937 cells [1] = experiment: Direct effect of peptides on U-937 cell proliferation ([3H]-thymidine incorporation); format: cell-based, human; conditions: peptides in dose 1 mM; U-937 cell proliferation vs control without additions
Procedure: Cells, cultivated without additions, were taken as a control.
(§1) To assess growth regulative activity of peptides various doses of peptides were added to the cells for 24 h and then the cells were assessed for proliferation, cell viability and DNA-fragmentation. To determine ability of peptides to modulate apoptosis induced by other factors Jurkat cells were treated with 20 ng/ml of CH-11 antibodies without ActD, Raji cells were treated with CH-11 in the presence of 0.5 μg/ml of ActD for 18 h. For induction of apoptosis with TNF-α, cells (Jurkat, MCF7 or U937) were treated for 24 h with 25 ng/ml of the cytokine and then were assessed for proliferation or viability as described above. HepG2 cells were pre-washed before TNF addition with fresh medium to remove endogenous growth factors.

U-937 cells [2] = experiment: Modulation of AFP-induced apoptosis / growth suppression in U-937 cells ([3H]-thymidine incorporation); format: cell-based, human; conditions: for Effect on AFP-induced apoptosis in whole cells (in words): 15 min peptide pre-treatment, then 3 μM AFP, 24 h
Procedure: Cell proliferation was assessed by [^3H]-thymidine incorporation assay after 24 h of incubation.
The cells were treated for […] with various doses of the peptides and thereafter 3 μM pure human AFP was added to each well. Cell proliferation was assessed by the [^3H]-thymidine incorporation assay after 24 h of incubation.
The cells were treated for 15 min with various doses of the peptide and thereafter 3 μM pure human AFP was added to each well. Cell proliferation was assessed by the [^3H]-thymidine incorporation assay after 24 h of incubation.
U937 cells were plated out at a density of 4×10^3 cells/well in flat-bottom 96-well plates (Costar) in the complete medium and incubated for 2 h before reagent additions. Then cells were treated for 24 h with various doses of AFP dissolved in PBS and then assessed for proliferation. Cell treatment with cytotoxic IgM anti-Fas antibody CH-11 was performed as described. U937 cells were treated with 50 ng/ml of CH-11 antibodies for 18 h. Cells were left untreated or were treated with reagents for adequate time intervals and for the last 4 h of culture were subjected to their [^3H]-thymidine (1 Ci/mmol/well) incorporation. Experimental data were expressed as a percentage of [^3H]-thymidine incorporation in triplicate cultures relative to the medium control. Cells, cultivated without additions, were taken as a control.
as §1

[3] = test system: caspase-3 activation (DEVDase activity); experiment: dATP-dependent Cyt c-induced caspase-3 (DEVDase) activation in cell-free cytosolic extracts of HepG2 cells; format: biochemical, human; conditions: for Effect on high dose cytochrome c-mediated caspase activation (in words) / Effect on low dose cytochrome c-induced caspase activation (in words): cell-free extracts, 15 min pre-treatment; for Effect on high dose cytochrome c-mediated caspase activation (in words) / Effect on low dose cytochrome c-induced caspase activation (in words) / Effect on the high dose Cyt c-induced caspase activation: peptides 750 μM; for Effect on high dose cytochrome c-mediated caspase activation (in words): high dose (165 nM) cytochrome c; for Effect on low dose cytochrome c-induced caspase activation (in words): low dose (110 nM) cytochrome c; for Effect on the low dose Cyt c-induced caspase activation (abrogation) / Effect on the high dose Cyt c-induced caspase activation / Effect on the low dose Cyt c-induced caspase activation (stimulation, or result in words): DEVDase activity; for Effect on the low dose Cyt c-induced caspase activation (abrogation) / Effect on the high dose Cyt c-induced caspase activation: numbers are % abrogation; for Effect on the low dose Cyt c-induced caspase activation (stimulation, or result in words): numbers are % stimulation
Procedure: Peptides in the concentration of 750 μM were added to the cell extracts 15 min before the cytochrome c addition. Caspase activation was monitored by the cleavage of caspase-3-specific fluorogenic substrate DEVD-AMC.
(§2) HepG2, human hepatocarcinoma cells and human monoblastoma cell line U937 originated from American Type Culture Collection. Cell extracts were prepared by lysing cells in a hypotonic extraction buffer. To obtain the cytosolic S-100 fraction, the cell lysate was centrifuged for 1 h at 100,000×g. Extracts were either used immediately or frozen at −70° C. for later use.
(§3) Cell-free reactions were typically set up in 13-μl reaction volumes. Apoptosis was induced by addition of various doses of bovine heart cytochrom c and/or purified human AFP in the presence of 1 mM dATP. For 13-μl scale reactions, 10 μl of cell extract (˜2-4 mg/ml, as determined by the Bradford assay) were supplemented with 1 μl of dATP, 1 μl of Cyt c and/or AFP solutions in reaction buffer to receive necessary final concentration of reagents. To assess activity of peptides, various doses of peptides being dissolved in the reaction buffer together with 1 mM dATP were added to the cell extracts. To determine ability of the peptides to modulate apoptotic effects of Cyt c and AFP, peptides were added to extracts 10 min before cytochrome c or AFP. Control samples were incubated with the equal volume of the buffer (3 μl) without reagent addition. To initiate apoptosis, extracts were incubated at 37° C. for 40 min.
(§4) At the end of a caspase activation reaction, extract aliquots (5 μl) were supplemented with fluorogenic substrate DEVD-AMC (3 mM) and then incubated for definite time intervals (0.5-1 h) at 37° C. Reactions were terminated by dilution with addition of 2.0 ml of ice-cold 0.2 mM sodium phosphate buffer, pH 7.5, followed by a measurement of fluorescence with a Perkin Elmer MPF-44A (λexc=365 nm and λem=440 nm ) fluorometer. For each sample, the fluorescence intensity was normalized in the respect of cytosolic protein concentration. Caspase activation was presented as the ratio between the normalized fluorescence intensity of the sample and the corresponding value measured with a control sample.
To test ability of various peptides to affect caspase activation induced by exogenous cytochrome c in cell free system, we used cytosolic cell extracts of HepG2 cells. Aliquots of cell extracts were pre-treated with 750 μM of peptides for 15 min and thereafter various doses of cytochrome c was introduced in the reaction mixture to induce caspase activation.

[4] = test system: caspase-3 activation (DEVDase activity); experiment: Cyt c/AFP-mediated caspase-3 activation in cell-free cytosolic extracts of HepG2 cells; format: biochemical, human; conditions: for Ability to affect AFP-induced Cyt c-dependent caspase activation: DEVDase activity, numbers are % abrogation; for Effect on Cyt c/AFP-mediated caspase-3 activation (in words): cell-free HepG2 cytosolic extracts, 1 mM dATP
Procedure: Caspase activation was monitored by the cleavage of specific caspase-3 fluorogenic substrate DEVD-AMC.
as §2, §3, §4

U-937 cells [5] = test system: U-937 cells
[6] = test system: caspase-3 activation (DEVDase activity); conditions: cell-free system, no dATP
Procedure: as §2
Cell-free reactions were typically set up in 13-μl reaction volumes. Apoptosis was induced by addition of various doses of bovine heart cytochrom c and/or purified human AFP in the presence of 1 mM dATP. For 13-μl scale reactions, 10 μl of cell extract (˜2-4 mg/ml, as determined by the Bradford assay) were supplemented with 1 μl of dATP, 1 μl of Cyt c and/or AFP solutions in reaction buffer to receive necessary final concentration of reagents. […]
At the end of a caspase activation reaction, extract aliquots (5 μl) were supplemented with fluorogenic substrate DEVD-AMC (3 mM) and then incubated for definite time intervals (0.5-1 h) at 37° C. Reactions were terminated by dilution with addition of 2.0 ml of ice-cold 0.2 mM sodium phosphate buffer, pH 7.5, followed by a measurement of fluorescence with a Perkin Elmer MPF-44A (λexc=365 nm and λem=440 nm ) fluorometer. For each sample, the fluorescence intensity was normalized in the respect of cytosolic protein concentration. […]

[7] = test system: caspase-3 activation (DEVDase activity); experiment: dATP-dependent Cyt c-induced caspase-3 (DEVDase) activation in cell-free cytosolic extracts of HepG2 cells; format: biochemical, human

Row | Molecule | Effect on the cell growth (% of control) (U-937 cells [1]) | Effect on AFP-induced apoptosis in whole cells (in words) (U-937 cells [2]) | Effect on high dose cytochrome c-mediated caspase activation (in words) [3] | Effect on low dose cytochrome c-induced caspase activation (in words) [3] | Effect on the high dose Cyt c-induced caspase activation ([3]; cell-free system) | Ability to affect AFP-induced Cyt c-dependent caspase activation ([4]; cell-free system) | Effect on the low dose Cyt c-induced caspase activation (stimulation, or result in words) ([3]; cell-free system) | other results
1 | HGDLLE [Linear peptide from HSA] | +20 % of control | did not affect | significant inhibition | significant abrogation | 90% abrogation | no effect |  | Effect on the low dose Cyt c-induced caspase activation (abrogation) ([3]; cell-free system): 70% abrogation
2 | RGDVLD [Linear 6-mer peptide from AFP] | +10 % of control | did not revealed any apoptosis-regulating activity; also recorded: incapable of regulation | significant inhibition | significant abrogation | 80% abrogation | no effect |  | Effect on AFP-induced apoptosis in whole cells (in words) (U-937 cells [2]; listed as p25): not in the whole cells; Effect on the low dose Cyt c-induced caspase activation (abrogation) ([3]; cell-free system): 30-50%; Retention of apocyclin-A's modulation of Cyt c-mediated caspase activation in a cell-free system (in words) ([3]; summary statement): partially retained this activity; Effect on Cyt c/AFP-mediated caspase-3 activation (in words) [4]: able to abrogate
3 | *Cys-*Cys-Arg-Gly-Asp-Val-Leu-Asp-Cys* [apocyclin-A] | +12 % of control | completely abrogates; also recorded: completely cancelled | decreased; also recorded: significantly inhibited; also recorded: practically completely abrogated; also recorded: significant inhibition | significantly enhanced; also recorded: moderately supported; also recorded: notably enhanced; also recorded: same stimulation as full-length AFP molecule | 50-80% | 70-80% | 30% stimulation | Abrogation of the total anti-Fas-mediated apoptosis effect (U-937 cells [5]; 0.5 mM peptide, U-937 cells, various doses of CH-11): about 50%; Inhibition of anti-Fas-induced apoptosis (in words) (U-937 cells [5]; peptide concentration up to 1 mM, U-937 cells): more significant inhibition; Inhibition of anti-Fas-mediated cell death (in words) (U-937 cells [5]; summary statement, concentration not given): significantly inhibits; Stimulation of proliferation relatively to the medium control (U-937 cells [2]; 15-min pre-treatment with 1 mM, 24-h cultivation): 15%; Inhibition of caspase activation induced by high doses of endogenous cytochrome c ([3]; peptide 750 μM, cell-free system): 50-70%; Induction of DEVD-ase activity without dATP addition (in words) [6]: unable to induce; Effect on Cyt c/AFP-mediated caspase-3 activation (in words) [4]: abrogates; also recorded: cancelled; Inhibition of Cyt c/AFP-mediated caspase activation ([4]; cell-free system, combined cytochrome c/AFP treatment): 60-80%
4 | *Cys-Gly-Arg-Gly-Asp-Val-Leu-Asp-Cys* | −12 % of control | failed to abrogate; also recorded: no activity | no activity | no effect | no effect | no effect | no effect | 
5 | *Cys-Cys-His-Gly-Asp-Leu-Leu-Glu-Cys* (CCHGDLLEC; disulfide 1-9) [Cyclic peptide from human serum albumin] | +18 % of control | no activity | no activity | no effect | no effect | no effect | no effect | 
6 | *Cys-Gly-His-Gly-Asp-Leu-Leu-Glu-Cys* (CGHGDLLEC; disulfide 1-9 (inferred)) [Cyclic peptide from HSA, Cys substituted for Gly] |  | did not affect |  |  |  |  |  | 
7 | AFP: Human alpha-fetoprotein isolated from the cord serum, purity not less than 99.8% (protein, UniProt P02771 19-609, looked up) Alpha-fetoprotein: RTLHRNEYGIASILDSYQCTAEISLADLATIFFAQFVQEATYKEVSKMVKDALTAIEKPTGDEQSSGCLENQLPAFLEELCHEKEILEKYGHSDCCSQSEEGRHNCFLAHKKPTPASIPLFQVPEPVTSCEAYEEDRETFMNKFIYEIARRHPFLYAPTILLWAARYDKIIPSCCKAENAVECFQTKAATVTKELRESSLLNQHACAVMKNFGTRTFQAITVTKLSQKFTKVNFTEIQKLVLDVAHVHEHCCRGDVLDCLQDGEKIMSYICSQQDTLSNKITECCKLTTLERGQCIIHAENDEKPEGLSPNLNRFLGDRDFNQFSSGEKNIFLASFVHEYSRRHPQLAVSVILRVAKGYQELLEKCFQTENPLECQDKGEEELQKYIQESQALAKRSCGLFQKLGEYYLQNAFLVAYTKKAPQLTSSELMAITRKMAATAATCCQLSEDKLLACGEGAADIIIGHLCIRHEMTPVNPGVGQCCTSSYANRRPCFSSLVVDETYVPPAFSDDKFIFHKDLCQAQGVALQTMKQEFLINLVKQKPQITEEQLEAVIADFSGLLEKCCQGQEQEVCFAEEGQKLISKTRAALGV |  |  |  |  | 80% abrogation |  | 50% stimulation | Caspase activation in 'silent' cytosolic extracts with low suboptimal dose of exogenous cyt-c and dATP (in words) ([7]; AFP 7 μM, time-dependent, up to two hours): triggered the process of caspase activation; Caspase activation in the absence of dATP (in words) ([7]; S100 cytosolic extract, no dATP): did not induce any caspase activation; Induction of caspase-3-specific DEVDase activity in S100 cytosolic extract (in words) ([7]; protein 7 μM with dATP 1 mM, no exogenous cyt-c, up to 2 h): triggered dATP-dependent induction
